Key:
[1] = biological target: T1, GABAA receptors composed of α1, β2 and γ2S subunits (Homo sapiens, UniProt P14867+P18507+P47870); assay: Modulation of GABA-induced chloride currents (IGABA), two-microelectrode voltage-clamp in Xenopus laevis oocytes expressing GABAA receptors; assay type: cell-based; details: for Stimulation of IGABA (%): 100 µM of compound, GABA EC3-10 concentration; for Maximal stimulation of IGABA: GABA EC3-10, α1β2γ2S receptors
T1 construct: expressed in transfected cells; host or cells: Xenopus laevis oocytes (stage V-VI), injected with cRNA transcribed from cDNA templates in pCMV vector; α1:β2:γ2S cRNA ratio 1:1:10
Description: Preparation of stage V-VI oocytes from Xenopus laevis, synthesis of capped off run-off poly(A^+) cRNA transcripts from linearized cDNA templates (pCMV vector) was performed as described (Khom et al. 2000). Briefly, female Xenopus laevis (NASCO, USA) were anaesthetised by exposing them for 15 minutes to a 0.2 % solution of MS-222 (methane sulfonate salt of 3-aminobenzoic acid ethyl ester; Sandoz) before surgically removing parts of the ovaries. Follicle membranes from isolated oocytes were enzymatically digested with 2 mg/ml collagenase (Type 1A, Sigma). One day after isolation, the oocytes were injected with about 10-50 nl of DEPC- treated water ([…], Sigma, Germany) containing the different cRNAs at a concentration of approximately 150 - 3000 ng/µl/subunit. The amount of cRNA was determined by means of a NanoDrop ND-1000 (Kisker-biotech, Steinfurt, Germany).
To ensure expression of the gamma-subunit, cRNAs were mixed in a ratio of 1:1:10 (Boileau et al., 2002). Oocytes were stored at 18°C in ND96 solution (Methfessel et al., 1986). Electrophysiological experiments were done using the two-microelectrode voyage-clamp method at a holding potential of -70 mV making use of a TURBO TEC 01C amplifier (npi electronic, Tamm, Germany) and an Axon Digidata 1322A interface (Molecular Devices, Sunnyvale, CA). Using pCLAMP v.9.2 data acquisition was carried out. The bath solution contained 90 mM NaCl, 1 mM KCI, 1 mM MgCl2·6H2O, 1 mM CaCl2 and 5 mM HEPES (pH 7.4). Microelectrodes were filled with 2M KCl and had resistances between 1 and 3 MΩ (Khom et al., 2007).
GABA and compound (extract, fraction or pure compound) were applied by means of fast perfusion system (see Baburin et al., 2006 for detail Drug or control solutions were applied by means of a TECAN Miniprep 60 permitting automation of the experiments. Oocytes with maximal current amplitudes >3 µA were discarded to exclude voltage-clamp errors (Khom et al., 2007).
Stimulation of chloride currents by modulators of the GABAA receptor was measured at a GABA concentration eliciting between 3 and 10% of the maximal current amplitude (EC3-10). The EC3-10 was determined at the beginning of each experiment. Enhancement of the chloride current was defined as (I(GABA+Comp)/IGABA) - 1, where I(GABA+Comp) is the current response in the presence of a given compound (extract, fraction or pure compound) and IGABA is the control GABA current. To measure the sensitivity of the GABAA receptor for a given compound, it was applied for an equilibration period of 1 minute before applying GABA ([…]). Concentration-response curves were generated and the data were fitted by non-iinear regression analysis using Origin software (OriginLab Corporation, USA). Data were fitted to the equation: (1)/(1 + (((EC50)/([Comp])))^nH), [formula] where nH is the Hill coefficient. Each data point represents the mean ± S.E. from at least 4 oocytes and ≥ 2 oocyte batches. Statistical significance was calculated using paired Student t-test with a confidence interval of p < 0.05.
As described above, dried and cut sub-aerial parts of A. racemosa were grinded and extracted with methanol. The resulting crude extract (A0) was subsequently partitioned between water and organic solvents of increasing polarity giving diethyl ether (A1), ethyl acetate (A2) and 1-butanol (A3) fractions. Obtained extracts and the remaining aqueous layer (A4) were tested for their ability to modulate IGABA at a concentration of 100 µg/mL. To analyse the modulation of IGABA by black cohosh extracts and isolated compounds, GABAA receptors composed of α1, β2 and γ2s subunits were expressed in Xenopus oocytes. Stimulation of IGABA was analysed by means of the 2-microelectrode voyage-clamp technique. These and all subsequent experiments were carried out at a GABA EC3-10 concentration.

mice [2] = assay: Open Field Test (OF); assay type: in vivo, mice (C57BI/6N); details: for distance traveled in the open field in 10 min: 20 mg/kg/bodyweight i.p., 30 min prior to testing, control 38.2 ± 1.8 m
Description: (§1) Male mice (C57BI/6N) were obtained from Charles River Laboratories (Germany).
(§2) For maintenance mice were group housed with free access to food and water. Temperature was fixed to 23°C and 60% humidity with a 12 h light-dark cycle (lights on 0700-1900 hours). Mice at 3-8 months age were tested in all experiments (Khom et al., 2010).
(§3) Mice were transferred to the testing facility 24 h before commencement of experiments. Tests were performed between 0900 and 1300 hours. All tests were evaluated by an experimenter blinded to the administered compound, 30 min prior to testing animals were injected either with saline (0.9% NaCl-solution) as a control or with 23-O-acetylshengmanol-3-O-β-D-xylopyranosid (i.e., compound 4) and actein (i.e., compound 1), respectively (50 mg/250 µL stock prepared in 100% DMSO) at the indicated doses (0.2 mg/kg, 0.6 mg/kg, 2 mg/kg, 6 mg/kg, 20 mg/kg and 60 mg/kg bodyweight). All injection solutions contained 3% Polysorbat 80 and 10% of DMSO.
To determine explorative behaviour mice treated (n=9 for all doses) with compound 4 and control (n=11 mice were studied in the OF.
Open field behavior was tested over 10 min in a 50x50 cm box equipped with infrared rearing detection. Illumination was set to 150 lux. Explorative behavior was recorded and analyzed using the ActiMot 2 equipment (infrared beams) and software (TSE-systems, Bad Homburg, Germany). Arenas were subdivided into border (up to 8 cm from wall), center (20x20 cm, ie 16% of total area), and intermediate area according to the recommendations of EMPRESS (European Mouse Phenotyping Resource of Standardised Screens; http://empress.har.mrc.ac.uk).

mice [3] = assay: Stress-induced Hyperthermia Test (SIH); assay type: in vivo, mice (C57BI/6N)
Description: as §1, §2, §3
A temperature probe, lubricated with petrolatum, was inserted into the rectum of the mouse for a depth of up to 2 cm. […]
Prior to i.p injection of compound or saline the basal body temperature was determined. 3h after i.p injection, temperature was measured twice by means of a TH-5 Thermalert Monitoring Thermometer combined with a RET-3 rectal probe for mice. […]

[4] = biological target: T1, GABAA receptors composed of α1, β2 and γ2S subunits; assay: Modulation of GABA-induced chloride currents (IGABA), two-microelectrode voltage-clamp in Xenopus laevis oocytes expressing GABAA receptors; assay type: cell-based; details: IGABA-max induced by application of 1mM GABA; data not shown
mice [5] = assay: Light/Dark Choice Test (LDT); assay type: in vivo, mice (C57BI/6N)
Description: as §1, §2, §3
Explorative behavior in a brightly lit area (400 lux) was investigated by insertion of a black box into the open field arena, covering one third of the space. Time spent and distance travelled was measured over a 10 min period in the open area. One small field directly at the entrance to the black box was assigned as transition zone. To reach the larger compartment assigned as open area, the mouse had to leave the dark area completely. Behaviour was recorded and analyzed by means of the ActiMot2 system and software (TSE-systems, Bad Homburg, Germany).

T1 sequence (P14867 28-456): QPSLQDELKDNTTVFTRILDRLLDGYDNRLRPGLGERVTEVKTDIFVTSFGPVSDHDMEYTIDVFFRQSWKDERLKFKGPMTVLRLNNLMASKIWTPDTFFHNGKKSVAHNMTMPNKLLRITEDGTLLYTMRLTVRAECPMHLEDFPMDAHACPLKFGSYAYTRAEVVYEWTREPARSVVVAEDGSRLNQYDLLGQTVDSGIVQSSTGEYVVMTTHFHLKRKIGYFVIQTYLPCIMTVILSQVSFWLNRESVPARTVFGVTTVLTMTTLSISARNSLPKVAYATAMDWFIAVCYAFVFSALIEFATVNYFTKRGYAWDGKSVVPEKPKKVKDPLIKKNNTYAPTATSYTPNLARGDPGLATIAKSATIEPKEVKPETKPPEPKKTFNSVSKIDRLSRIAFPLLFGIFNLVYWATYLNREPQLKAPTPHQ
T1 sequence (P47870 26-512): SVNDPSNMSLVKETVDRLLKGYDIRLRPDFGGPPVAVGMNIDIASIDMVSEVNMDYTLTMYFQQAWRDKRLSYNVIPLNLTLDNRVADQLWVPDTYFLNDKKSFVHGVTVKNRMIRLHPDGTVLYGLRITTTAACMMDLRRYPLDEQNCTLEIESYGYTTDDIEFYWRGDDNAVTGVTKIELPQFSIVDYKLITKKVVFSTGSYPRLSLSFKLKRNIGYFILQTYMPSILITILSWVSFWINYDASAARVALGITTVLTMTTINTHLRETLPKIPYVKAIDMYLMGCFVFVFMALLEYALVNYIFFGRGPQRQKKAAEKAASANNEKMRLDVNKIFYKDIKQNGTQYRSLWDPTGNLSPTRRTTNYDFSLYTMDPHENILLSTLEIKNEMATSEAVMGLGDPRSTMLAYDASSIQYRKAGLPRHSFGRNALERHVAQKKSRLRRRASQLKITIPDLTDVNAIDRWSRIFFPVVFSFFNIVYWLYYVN
T1 sequence (P18507 40-467 isoform P18507-1 limits assumed): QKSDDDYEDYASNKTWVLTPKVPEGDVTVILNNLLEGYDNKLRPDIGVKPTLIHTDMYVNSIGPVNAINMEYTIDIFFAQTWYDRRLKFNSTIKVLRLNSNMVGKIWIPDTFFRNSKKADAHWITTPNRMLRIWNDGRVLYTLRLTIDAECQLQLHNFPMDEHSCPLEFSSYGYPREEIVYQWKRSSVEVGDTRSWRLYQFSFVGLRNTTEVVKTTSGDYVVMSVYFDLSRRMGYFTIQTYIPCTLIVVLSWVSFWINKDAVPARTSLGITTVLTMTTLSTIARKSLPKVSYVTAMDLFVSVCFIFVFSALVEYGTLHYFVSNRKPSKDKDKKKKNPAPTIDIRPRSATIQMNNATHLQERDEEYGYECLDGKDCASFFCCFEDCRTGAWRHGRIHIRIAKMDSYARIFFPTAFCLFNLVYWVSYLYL

| Molecule | Stimulation of IGABA (%) [1] [%] | EC50 [1] [µM] | Maximal stimulation of IGABA ([1]; compound 4 at 300 µM) [%] | also measured |
| --- | --- | --- | --- | --- |
| 12-acetylacteol [Compound 1a] | 126 ± 29 |  |  |  |
| CC(=O)O[C@@H]1C[C@@]23C[C@@]24CC[C@H](O[C@@H]2OC[C@@H](O)[C@H](O)[C@H]2O)C(C)(C)[C@@H]4CC[C@H]3[C@]2(C)C[C@@H]3O[C@]4(C[C@@H](C)[C@@H]3[C@@]12C)O[C@H](O)[C@@]1(C)O[C@@H]41 [Compound 1, actein] |  | 36 ± 14 | 378 ± 64 | distance traveled in the open field in 10 min (mice [2]): 30.6 ± 2.1 m |
| CC(=O)OC1CC23CC24CCC(OC2OCC(O)C(O)C2O)C(C)(C)C4CCC3C2(C)CC3OC4(CC(C)C3C12C)OCC1(C)OC14 (centres unmarked) [Compound 2, 26-deoxyactein] | 10 ± 6 |  |  |  |
| CC(=O)O[C@@H]1C[C@@]23C[C@@]24CC[C@H](O[C@@H]2OC[C@@H](O)[C@H](O)[C@H]2O)C(C)(C)[C@@H]4CC[C@H]3[C@]2(C)C[C@@H]3O[C@@]4(C[C@@H](C)[C@@H]3[C@@]12C)OC[C@@]1(C)O[C@@H]41 [Compound 3, 23-epi-26-deoxyactein] | 10 ± 4 |  |  |  |
| CC(=O)OC(CC(C)C1C(=O)C(O)C2(C)C3CCC4C(C)(C)C(OC5OCC(O)C(O)C5O)CCC45CC35CCC12C)C1OC1(C)C [Compound 4, 23-O-acetylshengmanol-3-O-β-D-xylopyranoside] |  | 27 ± 8 |  | IGABA enhancement, times stronger than the other isolated compounds ([1]; 100 µM, GABA EC3-10): about 10 times; body temperature increase upon stress (ΔT) (mice [3]; 6 mg/kg/bodyweight i.p., 3h after injection, control 1.2 ± 0.1°): 0.1 ± 0.1 °; body temperature increase upon stress (ΔT) compared to control (mice [3]; i.p., doses of Figure 9): significantly (p<0.05) smaller increase; distance traveled in the open field in 10 min (mice [2]): 22.6 ± 2.8 m; ambulation in all areas of the OF and overall ambulation compared to control (mice [2]; doses ≥2 mg/kg/bodyweight i.p.): significantly (p<0.05) decreased ambulation; reduced distance compared to control littermates (mice [2]; doses ≥20 mg/kg i.p.): approximately 50%; chloride currents induced in the absence of GABA [4]: ≤ 1 % of IGABA-max; distance travelled in the lit area (mice [5]; i.p., data not shown): without significant effects; time spent in the lit area (400 Lux) (mice [5]; ip, 0.6 mg/kg, 10 min): 265 ± 52 s; Transitions from the dark compartment to the lit area (mice [5]; vs vehicle group, data not shown): did not differ |
| CC(=O)O[C@H](C[C@@H](C)[C@H]1C(=O)[C@H](O)[C@@]2(C)[C@@H]3CC[C@H]4C(C)(C)[C@@H](O)CC[C@@]45C[C@@]35CC[C@]12C)[C@@H]1OC1(C)C [Compound 4a, 23-O-acetylshengmanol] | 64 ± 14 |  |  |  |
| CC(=O)O[C@@H]1C[C@@]23C[C@@]24CC[C@H](O[C@@H]2OC[C@@H](O)[C@H](O)[C@H]2O)C(C)(C)[C@@H]4CC=C3[C@]2(C)C[C@@H]3O[C@@]4(O)[C@H](OC(C)(C)[C@H]4O)[C@@H](C)[C@@H]3[C@@]12C [Compound 5, cimiracemoside F] | 5 ± 2 |  |  |  |
| C[C@@H]1C[C@H]2O[C@@]3(O[C@@H]2C(C)(C)O)[C@H](O)[C@@]2(C)[C@@H]4CC[C@H]5C(C)(C)[C@@H](O[C@@H]6OC[C@@H](O)[C@H](O)[C@H]6O)CC[C@@]56C[C@@]46CC[C@]2(C)[C@@H]13 [Compound 6, cimigenol-3-O-β-D-xylopyranoside] |  | 28 ± 17 | 256 ± 40 |  |
| CC(=O)OC(C)(C)[C@H]1O[C@@]23O[C@@H]1C[C@@H](C)[C@@H]2[C@@]1(C)CC[C@@]24C[C@@]25CC[C@H](O[C@@H]2OC[C@H](O)[C@H](O)[C@H]2O)C(C)(C)[C@@H]5CC[C@H]4[C@]1(C)[C@H]3O [Compound 8, 25-O-acetylcimigenol-3-O-α-L-arabinopyranoside] |  | 26 ± 7 | 289 ± 45 | Emax at 300 µM ([1]; read-out: Maximal stimulation of IGABA, GABA EC3-10, α1β2γ2S receptors, compound 4 at 300 µM): < 300% |
| C=C(C)[C@H]1O[C@@]23O[C@@H]1C[C@@H](C)[C@@H]2[C@@]1(C)CC[C@@]24C[C@@]25CC[C@H](O[C@@H]2OC[C@@H](O)[C@H](O)[C@H]2O)C(C)(C)[C@@H]5CC[C@H]4[C@]1(C)[C@H]3O [Compound 10, 25-O-anhydrocimigenol-3-O-β-D-xylopyranoside] | -76 ± 7 | 26 ± 7 |  |  |

Reference: EP2438921A1, “23-O-Acetylshengmanol-3-O-beta-D-xylopyranoside and its medical use” (Universität Innsbruck, priority 2010, dated 2012)
